The experiment deals with GGT (gamma glutamyl transpeptidase) of H. pylori ATCC 43504 cells (Helicobacter pylori, UniProt O25743). Kind of experiment: Cell Based GGT Inhibitor (CBGI) Assay. The settings on record: whole H. pylori ATCC 43504 cells, ~30 min room temperature, AMC release fluorescence; table titled 'Binding Data of GGT Modulating Compounds'. How it is done:
Cell Based GGT Inhibitor Assay
The protocol of the Cell Based GGT Inhibitor Assay (CBGI assay) is adapted from the Methods in Enzymology protocol 252: 66 (1995).
H. pylori Sample Preparation
H. pylori ATCC 43504 were grown on blood agar plates. For accurate results, the H. pylori cells were in a logarithmic, spiral phase. This was achieved by plating cells from a culture that was >75% spiral in a phosphate buffered saline (PBS) solution on blood agar plates and incubating them overnight in microaerophilic conditions at 37° C. The next day, the cells were harvested by adding 1 ml of PBS to the plate and scraping off cells gently with a loop. The cells were then placed in a sterile 50 ml conical tube and the plate was washed ˜5 times with 1 ml of PBS. The washes were then pooled in the same 50 ml tube. An OD600 was subsequently taken using PBS as the blank. The cells were then resuspended to reach a final OD600 of 0.05. A single blood agar plate typically yields approximately 50-75 mls of cells at A600 OD=0.05. 3 mls of cells at OD=0.05 are required for each 96-well plate; 30 μl added to each well yields a final OD of 0.015. 4-5 blood agar plates would yield more than enough H. pylori cells for 50 96-well microtitre plates.
On each test plate, two known inhibitors were added to separate control wells (4 μl 0.25 mM azaserine and 4 μl 1.25 mM γ-glu-hydroxamate). Control wells containing only cells were also included on each test plate. In each well, 70 μl of buffer was added using an automated dispenser. Then, 30 μl H. pylori cells were added at OD A600=0.05. After the cells were added to each well, the plate was kept at room temperature for ˜30 minutes. The reaction was terminated by dispensing 75 μl 100 mM glycine to each well.
GGT inhibition was determined by analyzing the release of amido-4-methylcoumarin (AMC) at A460 nm after excitation at A360 in Cytoflour//Walloc fluorescent plate reader. The data was compared to the average of the two control wells from each plate and the γ-glu-hydroxamate control, which should always be ˜50%. Any compound that inhibited ≦50% activity was retested.

GGT (gamma glutamyl transpeptidase) of H. pylori ATCC 43504 cells, sequence (O25743 entry or part of it): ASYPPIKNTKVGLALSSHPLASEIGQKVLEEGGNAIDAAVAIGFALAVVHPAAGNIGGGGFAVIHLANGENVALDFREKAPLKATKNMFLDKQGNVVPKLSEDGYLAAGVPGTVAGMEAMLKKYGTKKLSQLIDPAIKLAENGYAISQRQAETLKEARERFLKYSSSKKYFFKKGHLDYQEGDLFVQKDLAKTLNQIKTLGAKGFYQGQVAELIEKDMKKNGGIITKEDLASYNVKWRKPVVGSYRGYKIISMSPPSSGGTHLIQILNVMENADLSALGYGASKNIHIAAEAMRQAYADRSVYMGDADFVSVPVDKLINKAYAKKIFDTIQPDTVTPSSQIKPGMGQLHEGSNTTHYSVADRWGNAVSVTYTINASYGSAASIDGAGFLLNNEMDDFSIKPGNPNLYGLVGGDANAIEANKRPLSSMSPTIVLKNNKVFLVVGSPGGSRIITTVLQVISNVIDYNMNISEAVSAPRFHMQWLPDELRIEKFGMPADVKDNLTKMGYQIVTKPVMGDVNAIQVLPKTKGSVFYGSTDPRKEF

As usually defined, the IC50 is the concentration at which inhibition is half-maximal. Higher therefore signals a need for much substance. `COc1cc(/C=C2/SC(=S)NC2=O)ccc1O` [B] gave an IC50 of 22.4 µM.

In the case of `CC(C)OC(=O)CSc1nc2cc(C(=O)NC(Cc3cnc[nH]3)C(N)=O)ccc2n1CCc1c[nH]c2ccccc12` (stereo not shown) [D], the IC50 is 4.53 µM.

The compound `CCN1CCCC(NC(=O)c2ccc(Nc3ccnc4cc5ccccc5cc34)cc2)C1` (stereo not shown) [A] gave an IC50 of 1.13 µM.

On to `CCN(CC)CCn1c(SCC(=O)c2ccc(-c3ccccc3)cc2)nc2cc(C(=O)NC(Cc3cn(Cc4ccccc4)cn3)C(N)=O)ccc21` (stereo not shown) [E], for which the IC50 was 11.2 µM.

In the case of `Cc1nc(-c2nc(C(=O)/C=C/N(C)C)cs2)cs1` [C], the IC50 was 17.9 to 35.8 µM.

For the compound `COc1cccc(-c2cc3[nH]c(C)cc(=O)n3n2)c1` [G], the IC50 is 2.15 µM.

Consider `Cc1ccc(CSc2nnc(/N=C/N(C)C)s2)cc1` [F], for which the IC50 is 2.02 µM.

Source of the values: patent US6380217B1, “Methods for controlling GGT-positive bacteria” (priority 1999, dated 2002).
